In patent publication US10251395B2, “Substituted furano-/thienocycloalkylamino-2-pyrimidine derivatives and use thereof for controlling undesired plant growth” (Bayer CropScience Aktiengesellschaft, priority 2015, dated 2019):

Columns and labels:
logP (HCOOH) = type: physicochemical; conditions: for chromatographic logP: HCOOH (formic acid)
Text: Table 2 (physicochemical characterization of selected synthesis examples)

Amaranthus retroflexus [1] = assay: Pre-emergence herbicidal effect; type: in vivo; conditions: scored visually after 3 weeks
Procedure, shortened: (§1)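 Pre-em soil-surface spray; sandy loam, seeds covered with soil. WP/EC, aq. suspension/emulsion, 600–800 L/ha, +0.2% wetting agent. GH 3 wk; visual % activity vs untreated (100% = dead).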

Stellaria media [2] = assay: Pre-emergence herbicidal effect; type: in vivo; conditions: scored visually after 3 weeks
Procedure, shortened: as §1

Veronica persica [3] = assay: Pre-emergence herbicidal effect; type: in vivo; conditions: scored visually after 3 weeks
Procedure, shortened: as §1

Viola tricolor [4] = assay: Pre-emergence herbicidal effect; type: in vivo; conditions: scored visually after 3 weeks
Procedure, shortened: as §1

Viola tricolor [5] = assay: Post-emergence herbicidal effect; type: in vivo; conditions: assessed visually after about 3 weeks vs untreated controls
Procedure, shortened: (§2)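 Seedlings at the one-leaf stage, about 2 to 3 weeks old, are sprayed on their foliage with compound suspended or emulsified in water containing 0.2% wetting agent. After roughly 3 weeks in the greenhouse, injury is estimated visually on a 0 to 100% scale.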

Matricaria inodora = assay: Pre-emergence herbicidal effect; type: in vivo; conditions: scored visually after 3 weeks
Procedure, shortened: as §1

Polygonum convolvulus = assay: Pre-emergence herbicidal effect; type: in vivo; conditions: Dosage 320 g/ha, scored visually after 3 weeks
Procedure, shortened: as §1

Amaranthus retroflexus [6] = assay: Post-emergence herbicidal effect; type: in vivo; conditions: 320 g/ha, assessed visually after about 3 weeks vs untreated controls
Procedure, shortened: as §2

Stellaria media [7] = assay: Post-emergence herbicidal effect; type: in vivo; conditions: 320 g/ha, assessed visually after about 3 weeks vs untreated controls
Procedure, shortened: as §2

Veronica persica [8] = assay: Post-emergence herbicidal effect; type: in vivo; conditions: 320 g/ha, assessed visually after about 3 weeks vs untreated controls
Procedure, shortened: as §2

In the case of `Cc1cc2c(s1)CCC2Nc1ncc(S(=O)(=O)C(C)(C)C)c(N)n1` (racemic) [compound 77], the “logP (HCOOH)” value (logP (HCOOH)) is reported as “solid; logP (HCOOH): 2.67; 1H NMR (CDCl3, 400 MHZ, δ in ppm): 1.40 (s, 9H, 3*3H”.
In the case of `Cc1sc(C)c2c1CCCC2Nc1ncc(C#N)c(N)n1` (racemic) [compound 56], the “logP (HCOOH)” value (logP (HCOOH)) is reported as “oily; logP (HCOOH): 2.66;”.
With `N#Cc1cnc(NC2CCc3cc(Cl)sc32)nc1N` (racemic) [compound 49] the “AMARE pre-emergence efficacy (herbicidal activity)” value (“AMARE pre-emergence efficacy” below) (Amaranthus retroflexus [1]; Dosage 320 g/ha) was 100%, the “STEME pre-emergence efficacy (herbicidal activity)” value (“STEME pre-emergence efficacy” for short) (Stellaria media [2]; Dosage 80 g/ha) was 90% and the “STEME pre-emergence efficacy” value (Stellaria media [2]; Dosage 320 g/ha) was 100%. For the same compound, the “VERPE pre-emergence efficacy (herbicidal activity)” value (shortened to “VERPE pre-emergence efficacy”) (Veronica persica [3]; Dosage 320 g/ha) was 70%, the “VIOTR pre-emergence efficacy (herbicidal activity)” value (shortened to “VIOTR pre-emergence efficacy”) (Viola tricolor [4]; Dosage 80 g/ha) was 100% and the “VIOTR pre-emergence efficacy” value (Viola tricolor [4]; Dosage 320 g/ha) was 100%. The “post-emergence efficacy VIOTR” value (Viola tricolor [5]; 80 g/ha) was 80%, the “post-emergence efficacy VIOTR” value (Viola tricolor [5]; 320 g/ha) was 90% and the “logP (HCOOH)” value (logP (HCOOH)) was “solid; logP (HCOOH): 2.32;”.
For `Cc1cc2c(s1)CCCC2Nc1nc(N)c([S+](C)[O-])c(C(F)(F)F)n1` (racemic) [compound 35], the “AMARE pre-emergence efficacy” value (Amaranthus retroflexus [1]; Dosage 320 g/ha) was 90%, the “MATIN pre-emergence efficacy (herbicidal activity)” value (“MATIN pre-emergence efficacy” below) (Matricaria inodora; Dosage 320 g/ha) was 90% and the “POLCO pre-emergence efficacy (herbicidal activity)” value (Polygonum convolvulus) was 90%. The “STEME pre-emergence efficacy” value (Stellaria media [2]; Dosage 320 g/ha) was 100%, the “VERPE pre-emergence efficacy” value (Veronica persica [3]; Dosage 320 g/ha) was 90% and the “VIOTR pre-emergence efficacy” value (Viola tricolor [4]; Dosage 320 g/ha) was 100%. For the same compound, the “post-emergence efficacy AMARE” value (Amaranthus retroflexus [6]) was 80%, the “post-emergence efficacy VIOTR” value (Viola tricolor [5]; 320 g/ha) was 90% and the “logP (HCOOH)” value (logP (HCOOH)) was “oily; logP (HCOOH): 3.44; 1H NMR (CDCl3, 400 MHZ, δ in ppm): 1.85 (m, 3H, 3H of”.
In the case of `Nc1nc(NC2CCc3ccsc32)ncc1[N+](=O)[O-]` (racemic) [compound 32], the “logP (HCOOH)” value (logP (HCOOH)) is reported as “solid; m.p.: 189.5° C.; logP (HCOOH): 1.53;”.
In the case of `Nc1nc(NC2CCCc3sccc32)ncc1S(=O)(=O)C1CC1` (racemic) [compound 36], the “AMARE pre-emergence efficacy” value (Amaranthus retroflexus [1]; Dosage 80 g/ha) is reported as 100%, the “AMARE pre-emergence efficacy” value (Amaranthus retroflexus [1]; Dosage 320 g/ha) is reported as 100% and the “MATIN pre-emergence efficacy” value (Matricaria inodora; Dosage 80 g/ha) is reported as 100%. For the same compound, the “MATIN pre-emergence efficacy” value (Matricaria inodora; Dosage 320 g/ha) was 100%, the “STEME pre-emergence efficacy” value (Stellaria media [2]; Dosage 80 g/ha) was 100% and the “STEME pre-emergence efficacy” value (Stellaria media [2]; Dosage 320 g/ha) was 100%. The “VERPE pre-emergence efficacy” value (Veronica persica [3]; Dosage 80 g/ha) was 90%, the “VERPE pre-emergence efficacy” value (Veronica persica [3]; Dosage 320 g/ha) was 100% and the “VIOTR pre-emergence efficacy” value (Viola tricolor [4]; Dosage 80 g/ha) was 100%. The “VIOTR pre-emergence efficacy” value (Viola tricolor [4]; Dosage 320 g/ha) was 100%, the “post-emergence efficacy STEME” value (Stellaria media [7]) was 80% and the “post-emergence efficacy VERPE” value (Veronica persica [8]) was 80%. For the same compound, the “post-emergence efficacy VIOTR” value (Viola tricolor [5]; 80 g/ha) was 100%, the “post-emergence efficacy VIOTR” value (Viola tricolor [5]; 320 g/ha) was 100% and the “logP (HCOOH)” value (logP (HCOOH)) was “solid; m.p.: 243.3° C.; logP (HCOOH): 2.12; 1H NMR (CDCl3, 400 MHZ, δ in ppm):”.
Work on `Cc1cc2c(o1)CC(C)(C)CC2Nc1ncc([N+](=O)[O-])c(N)n1` (stereo not shown) [compound 40, 5-Nitro-N2-(2,6,6-trimethyl-4,5,6,7-tetrahydro-1-benzofuran-4-yl)pyrimidine-2,4-diamine] yielded a chromatographic logP (logP (HCOOH)) of 3.2.
With `COc1nc(NC2CCCc3sc(C)cc32)ncc1F` (racemic) [compound 224] the “logP (HCOOH)” value (logP (HCOOH)) was “solid; logP (HCOOH): 3.12; 1H NMR (CDCl3, 400 MHZ, δ in ppm): 1.90 (m, 3H, 3H”.
In the case of `Cc1nc(NC2CCCc3c(C)sc(C)c32)nc(N)c1C#N` (racemic) [compound 64], the “logP (HCOOH)” value (logP (HCOOH)) is reported as “solid, logP (HCOOH): 2.71; 1H NMR (CDCl3, 400 MHZ, δ in ppm): 1.75 (m, 3H, 3H”.
`CCCS(=O)(=O)c1cnc(NC2CCCc3sccc32)nc1N` (stereo not shown) [compound 37, 5-Propylsulfonyl-N2-(4,5,6,7-tetrahydrobenzothiophen-4-yl)pyrimidine-2,4-diamine] showed a chromatographic logP (logP (HCOOH)) of 2.33.
